According to patent US20260265199A1, “CRYSTALLINE FORMS OF (R)-2-AMINO-5-(4-(2-(3,5-DIFLUOROPHENYL)-2-HYDROXYACETAMIDO)-2-METHYLPHENYL)-N-ISOPROPYLNICOTINAMIDE AND METHODS FOR USING THE SAME” (HIBERCELL, INC., priority 2023, published 2026):
Counter-ions that a name gives are not always drawn. Like-named read-outs stand apart in the source and are kept apart here.

Experiment: Phase 1a study: pharmacokinetics after oral BID dosing in subjects with advanced solid tumors
Type: in vivo, human
Parameters: Increase in mean: scale not given here
Settings: for Increase in mean: 600 mg vs preceding dose level (400 mg); for Cmax / half-life / AUC(0-t) / Vd/F / Tmax: human, in vivo, po; for Vd/F: read-out: Vz/F
Method: This example describes a first in human, Phase 1a, multi-center, open-label study to establish the maximum tolerated dose (MTD) and evaluate the safety and tolerability of oral dosing of Form A of the hemi-fumarate salt of the compound of formula (I) (Example 11) in a dose-escalating fashion. Form A of the hemi-fumarate salt was orally administered BID every day with food or within 30 minutes of completing a meal, starting at 25 mg, with doses escalating to 50, 100, 200, 400, 600, and 900 mg BID as safety allows for each 3-week treatment cycle.
Up to 36 qualified subjects at 3 to 5 US sites, who have specific tumor types of renal cell carcinoma (RCC), gastric cancer (GC), metastatic breast cancer (MBC), small cell lung cancer (SCLC), and other solid tumors (e.g., non-small cell lung cancer, colorectal cancer, carcinoma of unknown primary) with the exception of rapidly progressing neoplasms (e.g., pancreatic cancer, glioblastoma, hepatocellular carcinoma) received Form A of the hemi-fumarate salt. Every effort was made to ensure approximately 50% of all subjects enrolled were subjects with RCC and GC. The starting dose level was 25 mg twice daily (BID), escalating to 50, 100, and 200 mg BID as safety allows, following the Bayesian Optimal Interval (BOIN) design. The safety monitoring committee (SMC) evaluated the dose-limiting toxicities (DLTs) and cumulative safety and PK data at the end of each cohort. Based on the SMC recommendations after a comprehensive review of PK and safety data for 200 mg BID dose, higher dose levels were evaluated, starting with 400 mg BID. The dose escalated to 600 mg and then 900 mg following the BOIN design starting with 1 subject at each escalated dose, until the MTD was reached or the sponsor or SMC declares the dose most appropriate for clinical development. This Phase 1a will be expanded into a Phase 1b/2a study through a protocol amendment and will then assess the dose and tumor type(s) selected in Phase 1a as the most appropriate for further clinical development. Subjects were dosed until unacceptable toxicity, disease progression per immune-related Response Evaluation Criteria in Solid Tumors (iRECIST), subject withdrawal, any other administrative reasons, or after 2 years of treatment, whichever occurs first. Efficacy was assessed via Response Evaluation Criteria in Solid Tumors 1.1 (RECIST 1.1); computed tomography (CT) scans were conducted every 6 weeks. Safety, including occurrence of dose-limiting toxicities (DLTs), pharmacokinetics (PK), and biomarker parameters were also assessed.
Form A of the hemi-fumarate salt was orally administered BID with food or within 30 minutes of completing a meal, starting at 25 mg, with doses escalating to 50, 100, 200, 400, 600 and 900 mg BID as safety allowed. Up to 24 subjects were enrolled to ensure 12 subjects completed the study at the estimated MTD of Form A of the hemi-fumarate salt. Dosing occurred in 3-week cycles. Subjects spent Cycle 1/Day 1 (C1D1) in the clinic followed by an overnight stay for safety monitoring and PK sampling. Subjects were hospitalized for administration of first 3 doses: CID1 am and pm doses, and Cycle 1/Day 2 (C1D2) am dose; on Days 8, 15, and 21 the am dose was taken in the clinic after the planned PK samples. All other doses were self administered at home.
Results of Cohorts 1 to 6 the study are detailed in Tables 47-50 below.

[1] = 25 mg, 25 mg single oral dose, Cycle 1 Day 1, geometric mean, N = 3
[2] = 50 mg, 50 mg single oral dose, Cycle 1 Day 1, geometric mean, N = 3
[3] = 200 mg, 200 mg single oral dose, Cycle 1 Day 1, geometric mean, N = 5

**Q.** With Cc1cc(NC(=O)[C@H](O)c2cc(F)cc(F)c2)ccc1-c1cnc(N)c(C(=O)NC(C)C)c1 [Form A of the hemi-fumarate salt, (R)-2-amino-5-(4-(2-(3,5-difluorophenyl)-2-hydroxyacetamido)-2-methylphenyl)-N-isopropylnicotinamide] as the compound, how does the Increase in mean (single oral dose, Cycle 1 Day 1) read?
**A.** 3.03

**Q.** And the Increase in mean (twice daily oral, Cycle 1 Day 21)?
**A.** 1.19

**Q.** And the Cmax [1]?
**A.** 120 ng/mL

**Q.** What about the half-life (25 mg, 25 mg single oral dose, Cycle 1 Day 1, geometric mean, N = 3, interpret with caution, terminal elimination phase not well captured, read-out: t1/2 (converted)) of the same compound?
**A.** 8.99 h

**Q.** What about the AUC(0-t) (25 mg, 25 mg single oral dose, Cycle 1 Day 1, geometric mean, N = 3, read-out: AUC0-12) of the same compound?
**A.** 850 ng·h/mL

**Q.** What about the AUC(0-t) (25 mg, 25 mg single oral dose, Cycle 1 Day 1, geometric mean, N = 3, read-out: AUC0-last) of the same compound?
**A.** 850 ng·h/mL

**Q.** What about the Vd/F [1] of the same compound?
**A.** 147 L

**Q.** And the Tmax (25 mg, 25 mg single oral dose, Cycle 1 Day 1, median, N = 3)?
**A.** 8 h

**Q.** What about the half-life (25 mg, 25 mg twice daily oral, Cycle 1 Day 21, N = 3, interpret with caution, terminal elimination phase not well captured, read-out: t1/2 (converted)) of the same compound?
**A.** 16 h

**Q.** And the Vd/F (25 mg, 25 mg twice daily oral, Cycle 1 Day 21, N = 3)?
**A.** 150 L

**Q.** And the Cmax (25 mg, 25 mg twice daily oral, Cycle 1 Day 21, geometric mean, N = 3)?
**A.** 537 ng/mL

**Q.** What about the AUC(0-t) (25 mg, 25 mg twice daily oral, Cycle 1 Day 21, geometric mean, N = 3, read-out: AUC0-last) of the same compound?
**A.** 4110 ng·h/mL

**Q.** What about the half-life (25 mg, 25 mg twice daily oral, Cycle 1 Day 21, geometric mean, N = 3, read-out: t1/2, eff (converted)) of the same compound?
**A.** 35.8 h

**Q.** What about the Tmax (25 mg, 25 mg twice daily oral, Cycle 1 Day 21, median, N = 3) of the same compound?
**A.** 2 h

**Q.** And the Cmax [2]?
**A.** 243 ng/mL

**Q.** And the half-life (50 mg, 50 mg single oral dose, Cycle 1 Day 1, geometric mean, N = 3, interpret with caution, terminal elimination phase not well captured, read-out: t1/2 (converted))?
**A.** 11.1 h

**Q.** What about the AUC(0-t) (50 mg, 50 mg single oral dose, Cycle 1 Day 1, geometric mean, N = 3, read-out: AUC0-12) of the same compound?
**A.** 2090 ng·h/mL

**Q.** And the AUC(0-t) (50 mg, 50 mg single oral dose, Cycle 1 Day 1, geometric mean, N = 3, read-out: AUC0-last)?
**A.** 2090 ng·h/mL

**Q.** And the Vd/F [2]?
**A.** 141 L

**Q.** What about the Tmax (50 mg, 50 mg single oral dose, Cycle 1 Day 1, median, N = 3) of the same compound?
**A.** 4 h

**Q.** And the Cmax (50 mg, 50 mg twice daily oral, Cycle 1 Day 21, geometric mean, N = 3)?
**A.** 978 ng/mL

**Q.** What about the AUC(0-t) (50 mg, 50 mg twice daily oral, Cycle 1 Day 21, geometric mean, N = 3, read-out: AUC0-last) of the same compound?
**A.** 9070 ng·h/mL

**Q.** What about the half-life (50 mg, 50 mg twice daily oral, Cycle 1 Day 21, geometric mean, N = 3, read-out: t1/2, eff (converted)) of the same compound?
**A.** 31.5 h

**Q.** What about the Tmax (50 mg, 50 mg twice daily oral, Cycle 1 Day 21, median, N = 3) of the same compound?
**A.** 2 h

**Q.** And the Cmax (100 mg, 100 mg single oral dose, Cycle 1 Day 1, geometric mean, N = 4)?
**A.** 380 ng/mL

**Q.** And the AUC(0-t) (100 mg, 100 mg single oral dose, Cycle 1 Day 1, geometric mean, N = 4, read-out: AUC0-12)?
**A.** 2800 ng·h/mL

**Q.** What about the AUC(0-t) (100 mg, 100 mg single oral dose, Cycle 1 Day 1, geometric mean, N = 4, read-out: AUC0-last) of the same compound?
**A.** 1930 ng·h/mL

**Q.** What about the Tmax (100 mg, 100 mg single oral dose, Cycle 1 Day 1, median, N = 4) of the same compound?
**A.** 7 h

**Q.** What about the half-life (100 mg, 100 mg twice daily oral, Cycle 1 Day 21, N = 3, interpret with caution, terminal elimination phase not well captured, read-out: t1/2 (converted)) of the same compound?
**A.** 37.6 h

**Q.** What about the Vd/F (100 mg, 100 mg twice daily oral, Cycle 1 Day 21, N = 3) of the same compound?
**A.** 383 L

**Q.** And the Cmax (100 mg, 100 mg twice daily oral, Cycle 1 Day 21, geometric mean, N = 3)?
**A.** 1310 ng/mL

**Q.** And the AUC(0-t) (100 mg, 100 mg twice daily oral, Cycle 1 Day 21, geometric mean, N = 3, read-out: AUC0-last)?
**A.** 11700 ng·h/mL

**Q.** What about the half-life (100 mg, 100 mg twice daily oral, Cycle 1 Day 21, geometric mean, N = 3, read-out: t1/2, eff (converted)) of the same compound?
**A.** 30.1 h

**Q.** What about the Tmax (100 mg, 100 mg twice daily oral, Cycle 1 Day 21, median, N = 3) of the same compound?
**A.** 4 h

**Q.** What about the Cmax [3] of the same compound?
**A.** 839 ng/mL

**Q.** And the half-life (200 mg, 200 mg single oral dose, Cycle 1 Day 1, geometric mean, N = 5, interpret with caution, terminal elimination phase not well captured, read-out: t1/2 (converted))?
**A.** 20.6 h

**Q.** And the AUC(0-t) (200 mg, 200 mg single oral dose, Cycle 1 Day 1, geometric mean, N = 5, read-out: AUC0-12)?
**A.** 5800 ng·h/mL

**Q.** What about the AUC(0-t) (200 mg, 200 mg single oral dose, Cycle 1 Day 1, geometric mean, N = 5, read-out: AUC0-last) of the same compound?
**A.** 5800 ng·h/mL

**Q.** What about the Vd/F [3] of the same compound?
**A.** 331 L

**Q.** And the Tmax (200 mg, 200 mg single oral dose, Cycle 1 Day 1, median, N = 5)?
**A.** 4 h

**Q.** And the half-life (200 mg, 200 mg twice daily oral, Cycle 1 Day 21, N = 4, interpret with caution, terminal elimination phase not well captured, read-out: t1/2 (converted))?
**A.** 7.71 h

**Q.** And the Vd/F (200 mg, 200 mg twice daily oral, Cycle 1 Day 21, N = 4)?
**A.** 79.4 L

**Q.** What about the Cmax (200 mg, 200 mg twice daily oral, Cycle 1 Day 21, geometric mean, N = 4) of the same compound?
**A.** 2990 ng/mL

**Q.** And the AUC(0-t) (200 mg, 200 mg twice daily oral, Cycle 1 Day 21, geometric mean, N = 4, read-out: AUC0-last)?
**A.** 27200 ng·h/mL

**Q.** What about the half-life (200 mg, 200 mg twice daily oral, Cycle 1 Day 21, geometric mean, N = 4, read-out: t1/2, eff (converted)) of the same compound?
**A.** 35.9 h
